Experimental findings from US7807673B2, “2-pyrimidinyl pyrazolopyridine ErbB kinase inhibitors” (GlaxoSmithKline LLC, priority 2005, dated 2010) are described below.

Bounds are passed on as bounds.

One test has as its target T1, ErbB2 or EGFR.
T1 construct: enzymes purified from a baculovirus expression system
The test can be described thus: ErbB enzyme substrate phosphorylation assay (HTRF), Method B (enzyme pre-incubated with compound 1 hour). Type of test: biochemical. The settings on record: Table 1, enzyme Method B: enzyme mix incubated with compound 1 hour at 20° C., reaction started with substrate mix; class over ErbB2 or EGFR. In outline: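 Baculovirus-expressed kinase (0.8 nM EGFR or 10 nM ErbB2 in enzyme mix) phosphorylated biotinylated Peptide C (0.8 µM in substrate mix) with 20 µM ATP in substrate mix, MOPS pH 7.5, MnCl2, 90 min at 20 °C. Method A started with enzyme; Method B pre-incubated enzyme with compound 1 h at 20 °C. HTRF read-out; IC50 from 12-point curve (0.00027–47.6 µM), reported as pIC50.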

In test [1] the test system is BT474 and HN5 tumor cell lines. The test can be described thus: Methylene blue growth inhibition assay (cellular Method A). The note with it: Homo sapiens, BT-474 and HN5, 72 h; Table 2, Method A methylene blue, 3 days; class over BT474 and HN5. The test is classed as cell-based. The method, then: (§1) Human breast (BT474) and head and neck (HN5) were cultured in low glucose DMEM (Life Technologies 12320-032) containing 10% fetal bovine serum (FBS). Human colon tumor cells (Colo205) were cultured in DMEM (Invitrogen, 10564) containing 10% FBS. The SV40 transformed human mammary epithelial cell line to HB4a was transfected with either human H-ras cDNA (HB4a r4.2) or the human c-ErbB2 cDNA (HB4a c5.2). The HB4a clones were cultured in RPMI containing 10% FBS, insulin ([…]), hydrocortisone ([…]), supplemented with the selection agent hygromycin B ([…]). All lines were grown in a humidified incubator at 37° C. in 95% air, 5% CO2. Cells were harvested using trypsin/EDTA, counted using a haemocytometer, and plated in 100 microliters of the appropriate media, at the following densities, in a 96-well tissue culture plate (Falcon 3075): BT474 10,000 cells/well, HN5 3,000 cells/well. The next day, compounds were diluted in DMEM containing […] gentamicin, at twice the final required concentration, from 10 mM stock solutions in DMSO. 100 microliters/well of these dilutions were added to the 100 microliters of media currently on the cell plates. Medium containing 0.6% DMSO was added to control wells. Compounds diluted in DMEM were added to all cell lines. The final concentration of DMSO in all wells was 0.3%. Cells were returned to the incubator (37° C., […]) for 3 days. Medium was then removed by aspiration. Cell biomass was estimated by staining cells with 90 microliters per well methylene blue (Sigma M9140, 0.5% in 1:1 ethanol:water), and incubation at rt for at least 30 minutes. Stain was removed, and the plates rinsed by immersion in deionized water and air-dried. To release stain from the cells 100 microliters of solubilization solution was added (1% N-lauroyl sarcosine, Sodium salt, Sigma L5125, in PBS), and plates were shaken gently for about 30 minutes. Optical density at 620 nm was measured on a microplate reader. Percent inhibition of cell growth was calculated relative to vehicle treated control wells. Concentration of compound that inhibits 50% of control cell growth (IC50) was interpolated using nonlinear regression (Levenberg-Marquardt) and the equation, y=Vmax*(1−(x/(K+x)))+Y2, where “K” was equal to the IC50. Method B: Celltiter Glo® Growth Inhibition Assays

Another test deals with Colo205 tumor cell lines. The test is described as above. The test is classed as cell-based. The note with it: Homo sapiens, COLO 205, 72 h, Table 3, Method A methylene blue, 3 days. The method, then: as §1

As for `CN(C)CCCOc1cccc(Nc2nccc(-c3c(-c4cccc(NC(=O)Cc5cccs5)c4)nn4ccccc34)n2)c1` [Example 12, N-[3-(3-{2-[(3-{[3-(Dimethylamino)propyl]oxy}phenyl)-amino]-4-pyrimidinyl}pyrazolo[1,5-a]pyridin-2-yl)phenyl]-2-(2-thienyl)acetamide], the “Activity (Method)” value at ErbB2 or EGFR was “+++ (B) (at least one pIC50 measurement of greater than 7 against either ErbB2 or EGFR)”. For the same compound, the IC50 (in test [1]; in the test on Colo205 tumor cell lines) was 100 to 1000 nM each time.
Take `Cc1sc(-c2ccccc2)nc1CC(=O)Nc1cccc(-c2nn3ccccc3c2-c2ccnc(Nc3cccc(CN(C)C)c3)n2)c1` [Example 29, N-(3-{3-[2-({3-[(Dimethylamino)methyl]phenyl}amino)-4-pyrimidinyl]pyrazolo[1,5-a]pyridin-2-yl}phenyl)-2-(5-methyl-2-phenyl-1,3-thiazol-4-yl)acetamide]: the “Activity (Method)” value on ErbB2 or EGFR was “+ (B) (no pIC50 measurement greater than 6 against either ErbB2 or EGFR)”. Further, the half-inhibitory concentration (IC50) (in test [1]; in the test with Colo205 tumor cell lines) was greater than 1000 nM in each case.
As for `CN(C)Cc1cccc(Nc2nccc(-c3c(-c4cccc(NC(=O)Cc5cccnc5)c4)nn4ccccc34)n2)c1` [Example 26, N-(3-{3-[2-({3-[(Dimethylamino)methyl]phenyl}amino)-4-pyrimidinyl]pyrazolo[1,5-a]pyridin-2-yl}phenyl)-2-(3-pyridinyl)acetamide], the “Activity (Method)” value at ErbB2 or EGFR was “++ (B) (at least one pIC50 measurement greater than 6 against either ErbB2 or EGFR but no measurement greater than pIC50 of 7)”. Also, the IC50 (in test [1]; in the test on Colo205 tumor cell lines) was greater than 1000 nM in each case.
Regarding `CN(C)Cc1cccc(Nc2nccc(-c3c(-c4cccc(NC(=O)Cc5c(F)cccc5F)c4)nn4ccccc34)n2)c1` [Example 25, 2-(2,6-Difluorophenyl)-N-(3-{3-[2-({3-[(dimethylamino)methyl]-phenyl}amino)-4-pyrimidinyl]pyrazolo[1,5-a]pyridin-2-yl}phenyl)acetamide], the “Activity (Method)” value on ErbB2 or EGFR is reported as “++ (B) (at least one pIC50 measurement greater than 6 against either ErbB2 or EGFR but no measurement greater than pIC50 of 7)”. Besides, the IC50 in test [1] is greater than 1000 nM; in the test on Colo205 tumor cell lines, 100 to 1000 nM.
Taken in the same sequence, the figures for `O=C(Cc1cccs1)Nc1cccc(-c2nn3ccccc3c2-c2ccnc(Nc3cccc(-c4cnco4)c3)n2)c1` [Example 1, N-{3-[3-(2-{[3-(1,3-oxazol-5-yl)phenyl]amino}-4-pyrimidinyl)pyrazolo[1,5-a]pyridin-2-yl]phenyl}-2-(2-thienyl)acetamide] were “+++ (B) (at least one pIC50 measurement of greater than 7 against either ErbB2 or EGFR)”, 100 to 1000 nM and 100 to 1000 nM.
In the same order, the values of `CN(C)Cc1cccc(Nc2nccc(-c3c(-c4cccc(NC(=O)Cc5ccccn5)c4)nn4ccccc34)n2)c1` [Example 27, N-(3-{3-[2-({3-[(Dimethylamino)methyl]phenyl}amino)-4-pyrimidinyl]pyrazolo[1,5-a]pyridin-2-yl}phenyl)-2-(2-pyridinyl)acetamide] are “++ (B) (at least one pIC50 measurement greater than 6 against either ErbB2 or EGFR but no measurement greater than pIC50 of 7)”, greater than 1000 nM and greater than 1000 nM.
In the same order, the values of `O=C(Cc1cccs1)Nc1cccc(-c2nn3ccccc3c2-c2ccnc(Nc3cccc(F)c3)n2)c1` [Example 9, N-[3-(3-{2-[(3-Fluorophenyl)amino]-4-pyrimidinyl}pyrazolo[1,5-a]pyridin-2-yl)phenyl]-2-(2-thienyl)acetamide] are “+++ (B) (at least one pIC50 measurement of greater than 7 against either ErbB2 or EGFR)”, greater than 1000 nM and greater than 1000 nM.
Take `Cc1cc(CC(=O)Nc2cccc(-c3nn4ccccc4c3-c3ccnc(Nc4cccc(CN(C)C)c4)n3)c2)on1` [Example 28, N-(3-{3-[2-({3-[(Dimethylamino)methyl]-phenyl}amino)-4-pyrimidinyl]pyrazolo[1,5-a]pyridin-2-yl}phenyl)-2-(3-methyl-5-isoxazolyl)acetamide]: the “Activity (Method)” value at ErbB2 or EGFR is reported as “+++ (B) (at least one pIC50 measurement of greater than 7 against either ErbB2 or EGFR)”. The IC50 (in test [1]; in the test on Colo205 tumor cell lines) was greater than 1000 nM in each case.
For `CN(C)CCOc1cc(Nc2nccc(-c3c(-c4cccc(NC(=O)Cc5cccs5)c4)nn4ccccc34)n2)ccc1Cl` [Example 45], at ErbB2 or EGFR, the “Activity (Method)” value was “++ (B) (at least one pIC50 measurement greater than 6 against either ErbB2 or EGFR but no measurement greater than pIC50 of 7)”. In addition, the IC50 (in test [1]; in the test on Colo205 tumor cell lines) was greater than 1000 nM in each case.
For the compound `NC1CCc2ccc(Nc3nccc(-c4c(-c5cccc(NC(=O)Cc6cccs6)c5)nn5ccccc45)n3)cc2C1` (stereo not drawn) [Example 55, N-[3-(3-{2-[(7-Amino-5,6,7,8-tetrahydro-2-naphthalenyl)amino]-4-pyrimidinyl}pyrazolo[1,5-a]pyridin-2-yl)phenyl]-2-(2-thienyl)acetamide], the “Activity (Method)” value on ErbB2 or EGFR is on record as “+++ (B) (at least one pIC50 measurement of greater than 7 against either ErbB2 or EGFR)”. Besides, the IC50 (in test [1]; with Colo205 tumor cell lines) was 100 to 1000 nM each time.
As to `NC1Cc2ccc(Nc3nccc(-c4c(-c5cccc(NC(=O)Cc6cccs6)c5)nn5ccccc45)n3)cc2C1` (stereo not drawn) [Example 54, N-[3-(3-{2-[(2-Amino-2,3-dihydro-1H-inden-5-yl)amino]-4-pyrimidinyl}pyrazolo[1,5-a]pyridin-2-yl)phenyl]-2-(2-thienyl)acetamide], the “Activity (Method)” value on ErbB2 or EGFR is “+++ (B) (at least one pIC50 measurement of greater than 7 against either ErbB2 or EGFR)”. Moreover, the values for the IC50 (in test [1]; in the test on Colo205 tumor cell lines) were less than 100 nM and 100 to 1000 nM, respectively.
For the compound `CN(C)CCCNc1ccc(Nc2nccc(-c3c(-c4cccc(NC(=O)Cc5cccs5)c4)nn4ccccc34)n2)cc1F` [Example 2, N-[3-(3-{2-[(4-{[3-(Dimethylamino)propyl]amino}-3-fluorophenyl)amino]-4-pyrimidinyl}pyrazolo[1,5-a]pyridin-2-yl)phenyl]-2-(2-thienyl)acetamide], the “Activity (Method)” value at ErbB2 or EGFR is given as “+++ (B) (at least one pIC50 measurement of greater than 7 against either ErbB2 or EGFR)”. Besides, the IC50 in test [1] is less than 100 nM; with Colo205 tumor cell lines, 100 to 1000 nM.
Taken in the same sequence, the figures for `O=C(Cc1cccs1)Nc1cccc(-c2nn3ccccc3c2-c2ccnc(Nc3cccc(OCCCN4CCOCC4)c3)n2)c1` [Example 11, N-[3-(3-{2-[3-{[3-(4-Morpholinyl)propyl]oxy}phenylamino]-4-pyrimidinyl}pyrazolo[1,5-a]pyridin-2-yl)phenyl]-2-(2-thienyl)acetamide] were “+++ (B) (at least one pIC50 measurement of greater than 7 against either ErbB2 or EGFR)”, 100 to 1000 nM and 100 to 1000 nM.
In the same order, the values of `NCc1cccc(Nc2nccc(-c3c(-c4cccc(NC(=O)Cc5ccsc5)c4)nn4ccccc34)n2)c1` [Example 43, N-{3-[3-(2-{[3-(Aminomethyl)phenyl]amino}-4-pyrimidinyl)pyrazolo[1,5-a]pyridin-2-yl]phenyl}-2-(3-thienyl)acetamide] are “+++ (B) (at least one pIC50 measurement of greater than 7 against either ErbB2 or EGFR)”, 100 to 1000 nM and greater than 1000 nM.

For orientation: IC50 means the concentration that inhibits the measured activity by half. A lower IC50 goes with greater potency in that assay.
